In PubChem BioAssay (NCI):
Values joined by “and” are separate entries in the source; they are usually repeats but may differ in a detail not shown here. Equal values may be shown once.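 In this assay, cells in 96-well plates receive the compound at five concentrations for 48 hours. Endpoints are linearly interpolated between the surrounding concentrations. GI50: concentration for 50% inhibition of growth. Definition used: TGI = concentration required for complete inhibition of growth.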

Key:
Assay in all cases: DTP human tumour cell line panel, 48 h
DU-145 prostate = test system: DU-145 prostate
LOX IMVI melanoma = test system: LOX IMVI melanoma
MDA-MB-435 = test system: MDA-MB-435
NCI-H23 lung = test system: NCI-H23 lung
RXF 393 renal = test system: RXF 393 renal
SF-539 CNS = test system: SF-539 CNS
T-47D breast = test system: T-47D breast
TK-10 renal = test system: TK-10 renal
UACC-257 melanoma = test system: UACC-257 melanoma
UO-31 renal = test system: UO-31 renal

SMILES | TGI (DU-145 prostate) [µM] | TGI (LOX IMVI melanoma) [µM] | TGI (MDA-MB-435) [µM] | TGI (NCI-H23 lung) [µM] | TGI (RXF 393 renal) [µM] | TGI (SF-539 CNS) [µM] | TGI (T-47D breast) [µM] | TGI (TK-10 renal) [µM] | TGI (UACC-257 melanoma) [µM] | TGI (UO-31 renal) [µM] | GI50 (DU-145 prostate) | GI50 (LOX IMVI melanoma) | GI50 (MDA-MB-435) | GI50 (NCI-H23 lung) | GI50 (RXF 393 renal) [µM] | GI50 (SF-539 CNS) | GI50 (T-47D breast) [µM] | GI50 (TK-10 renal) | GI50 (UACC-257 melanoma) [µM] | GI50 (UO-31 renal) [µM]
N#CC(C#N)=NNc1ccc2cn[nH]c2c1 | 82.9 | > 100 | > 100 | 50 | 55.4 | > 100 | > 100 | 76.1 | 60.2 | 28.1 |  |  |  |  |  |  |  |  |  | 
Cc1ccc(C)c2c1C(=O)N(c1ccc(F)cc1F)C2=O | > 100 | > 100 | > 100 | > 100 | > 100 | > 100 | > 100 | > 100 | > 100 | > 100 | > 100 µM | > 100 µM | > 100 µM | > 100 µM | > 100 | > 100 µM | 74.5 | > 100 µM | > 100 | > 100
CS(=O)(=O)N1CCC(n2c(=O)c(Oc3ccc(F)cc3F)cc3cnc(NC4CCOCC4)nc32)CC1 | > 25 | > 25 | > 25 | > 25 | > 25 | > 25 | > 25 | > 25 | > 25 | > 25 | > 25 µM | > 25 µM | > 25 µM | > 25 µM | 6.88 | > 25 µM | > 20.8 | 19.9 µM | > 25 | 16.9
O=C([O][Hg][c]1ccccc1)c1ccccc1 | 4.13 | 3.05 | 3.1 | 4.84 | 2.56 | 3.26 | 2.43 | 2.95 | 3.03 | 2.89 | 1.95 µM | 1.38 µM | 1.55 µM | 2.05 µM | 1.24 | 1.58 µM | 0.475 | 1.6 µM | 1.38 | 1.47
COc1ccc(-c2cc(/C=C3\C(=O)Nc4cc(Cl)ccc43)[nH]n2)cc1 | 21.4 | > 100 | 2.11 | > 100 | 7.36 | 7.52 | > 100 | > 100 | > 100 | > 100 | 3.52 µM | 4.36 µM | 0.416 µM | 4.27 µM | 2.03 | 2.41 µM | 6.6 | 7.74 µM | 26.3 | 3.49
N#Cc1c(NCc2ccccc2)nc(NCc2ccccc2)c(C#N)c1-c1ccc(Cl)cc1 | > 100 | > 100 | > 100 | > 100 | > 100 | > 100 | > 100 | > 100 | > 100 | > 100 | > 50 µM and 52.8 µM | > 50 µM and 29.7 µM | > 50 µM and 43.6 µM | > 50 µM and 67.1 µM | 65.5 | > 50 µM and 29 µM | > 100 | > 50 µM and 62.7 µM | > 100 | > 100
NC(=O)c1cccc2c(N[C@H](CN3CCC3)c3ccc(Cl)c(C(F)(F)F)c3)ncnc12 | 16.2 | 14.7 | 11.3 | 17 | 1.4 | 1.71 | 2.47 | 3.34 | 5.27 | 4.91 | 2.24 µM | 2.73 µM | 1.44 µM | 3.08 µM | 0.141 | 0.154 µM | 0.101 | 0.156 µM | 1.22 | 0.306
O=C(O)CCCCn1ccc(=O)[nH]c1=O | > 100 | > 100 | > 100 | > 100 | > 100 | > 100 | > 100 | > 100 | > 100 | > 100 |  |  |  |  |  |  |  |  |  | 
CNS(=O)(=O)OCC1OC(n2cnc3cncnc32)C(O)C1O (stereo not given) | > 100 | > 100 | > 100 | > 100 | > 100 | > 100 | > 100 | > 100 | > 100 | > 100 | > 100 µM | > 100 µM | > 100 µM | > 100 µM | > 100 | > 100 µM | > 100 | > 100 µM | > 100 | > 100
Oc1c(C(Nc2ccccn2)c2cccc(Oc3ccccc3)c2)ccc2cccnc12 (stereo not given) | 16.2 | 16.7 | 16.4 | > 100 | 22.1 | 3.56 | 33.2 | 14.5 | 15 | 3.11 | 0.774 µM | 0.468 µM | 0.496 µM | 0.839 µM | 1.32 | 0.372 µM | 0.785 | 0.672 µM | 1.32 | 0.382
CC1CCCC(C(=O)CC2CC(=O)NC(=O)C2)C1=O (stereo not given) | > 100 | > 100 | > 100 | > 100 | > 100 | > 100 | > 100 | > 100 | > 100 | > 100 |  |  |  |  |  |  |  |  |  | 
O=C(CCCn1c2c(sc3ccccc32)c(=O)n2nnc(-c3ccccc3)c12)NCCc1cnc[nH]1 | 2.2 | 2.49 | 1.87 | 9.6 | 5.25 | 0.111 | 10.5 | 3.75 | 4.39 | 2.95 | 0.833 µM | 0.28 µM | 0.345 µM | 2.71 µM | 2.56 | < 0.0144 µM | 0.638 | 2 µM | 2.2 | 1.42
ClCCCSSCCCCl | > 100 | > 81.9 | > 60.5 | > 100 | > 100 | 48.8 | > 100 | > 100 | > 100 | > 100 |  |  |  |  |  |  |  |  |  | 
COc1cc2c3c(n(CCCN4CCNCC4)c(=O)c2cc1OC)-c1cc2c(cc1C3=O)OCO2 | 1.02 | 0.757 | 11.3 | 1.47 | 4.89 | 0.355 | 21.3 | 2.66 | 15.5 | 10.6 | 0.0439 µM | 0.0732 µM | 3.27 µM | 0.104 µM | 0.811 | 0.0399 µM | 2.54 | 0.762 µM | 7.08 | 1.19
